Columns and labels:
Format in all cases: functional
[1] = Cytotoxicity against Homo sapiens (human) breast cancer cells after 48 hr by SRB assay; conditions: Cancer cell lines; for LC50 (concentration giving 50% net cell kill): pooled result: one value given for 9 cell lines, strains, targets or settings
SR = assay: Cytotoxicity against Homo sapiens (human) SR cells after 48 hr by SRB assay
[2] = Cytotoxicity against Homo sapiens (human) prostate cancer cells after 48 hr by SRB assay; conditions: Cancer cell lines
[3] = Cytotoxicity against Homo sapiens (human) renal cancer cells after 48 hr by SRB assay; conditions: Cancer cell lines
[4] = Cytotoxicity against Homo sapiens (human) ovarian cancer cells after 48 hr by SRB assay; conditions: Cancer cell lines
[5] = Cytotoxicity against Homo sapiens (human) CNS cancer cells after 48 hr by SRB assay; conditions: Cancer cell lines
[6] = Cytotoxicity against Homo sapiens (human) melanoma cellsafter 48 hr by SRB assay; conditions: Melanoma cell
[7] = Cytotoxicity against Homo sapiens (human) colon cancer cells after 48 hr by SRB assay; conditions: Cancer cell lines
[8] = Cytotoxicity against Homo sapiens (human) leukemia cells after 48 hr by SRB assay; conditions: Leukemia cell
[9] = Cytotoxicity against Homo sapiens (human) non-small cell lung cancer cells after 48 hr by SRB assay; conditions: Cancer cell lines
SF-268 = assay: Cytotoxicity against Homo sapiens (human) SF268 cells assessed as cellular growth after 48 hr by Alamar blue assay; design: concentration or dose not given beside the values
MCF7 = assay: Cytotoxicity against Homo sapiens (human) MCF7 cells assessed as cellular growth after 48 hr by Alamar blue assay; design: concentration or dose not given beside the values
NCI-H460 = assay: Cytotoxicity against Homo sapiens (human) NCI-H460 cells assessed as cellular growth after 48 hr by Alamar blue assay; design: concentration or dose not given beside the values

For Cc1nn(-c2ccc(Br)cc2)c(C)c1CC(=O)c1cc(O)ccc1O, the GI50 [1] was 11.4 µM, the TGI [1] was 36.3 µM and the LC50 (concentration giving 50% net cell kill) [1] was 48.8 µM. For the same molecule, the GI50 (SR) was 0.91 µM, the GI50 [2] was 12.4 µM and the TGI [2] was 47.3 µM. For the same molecule, the GI50 [3] was 12 µM, the TGI [3] was 36.7 µM and the GI50 [4] was 14.1 µM. The TGI [4] was 42.4 µM, the GI50 [5] was 11.3 µM and the TGI [5] was 29.8 µM. It also gave a GI50 [6] of 13.1 µM, a TGI [6] of 31.4 µM and a GI50 [7] of 11.2 µM. The TGI [7] was 42.1 µM, the GI50 [8] was 7.71 µM and the TGI [8] was 46.6 µM. For the same molecule, the GI50 [9] was 12 µM, the TGI [9] was 32.9 µM and the Activity (SF-268) was <32%. For the same molecule, the Activity (MCF7) was <32% and the Activity (NCI-H460) was <32%.

CC(=O)NS(=O)(=O)c1ccc(-n2nc(-c3ccccc3)cc2C2=CC(=O)C=CC2=O)cc1 gave a GI50 [1] of 78.5 µM, a TGI [1] of 100 µM and an LC50 (concentration giving 50% net cell kill) [1] of 100 µM. It also gave a GI50 [2] of 100 µM, a TGI [2] of 100 µM and a GI50 [3] of 90 µM. The TGI [3] was 100 µM, the GI50 [4] was 100 µM and the TGI [4] was 100 µM. It also gave a GI50 [5] of 100 µM, a TGI [5] of 100 µM and a GI50 [6] of 92 µM. The TGI [6] was 100 µM, the GI50 [7] was 78.4 µM and the TGI [7] was 100 µM. The GI50 [8] was 57.8 µM, the TGI [8] was 91.2 µM and the GI50 [9] was 100 µM. The TGI [9] was 100 µM, the Activity (SF-268) was <32% and the Activity (MCF7) was <32%. The Activity (NCI-H460) was <32%.

NS(=O)(=O)c1ccc(-n2nc(-c3ccccc3)cc2-c2cc(O)ccc2O)cc1 gave a GI50 [1] of 83.9 µM, a TGI [1] of 96 µM and an LC50 (concentration giving 50% net cell kill) [1] of 100 µM. The GI50 [2] was 77.6 µM, the TGI [2] was 100 µM and the GI50 [3] was 88.1 µM. It also gave a TGI [3] of 99.3 µM, a GI50 [4] of 81.3 µM and a TGI [4] of 98.2 µM. For the same molecule, the GI50 [5] was 86.6 µM, the TGI [5] was 100 µM and the GI50 [6] was 61.9 µM. For the same molecule, the TGI [6] was 92 µM, the GI50 [7] was 75.7 µM and the TGI [7] was 100 µM. It also gave a GI50 [8] of 49.6 µM, a TGI [8] of 100 µM and a GI50 [9] of 88.9 µM. For the same molecule, the TGI [9] was 100 µM, the Activity (SF-268) was <32% and the Activity (MCF7) was <32%. For the same molecule, the Activity (NCI-H460) was <32%.

For Oc1ccc(O)c(-c2cc(-c3ccc(Cl)cc3)nn2-c2ccccc2)c1, the GI50 [1] was 9.25 µM, the TGI [1] was 41.1 µM and the LC50 (concentration giving 50% net cell kill) [1] was 76.1 µM. The GI50 [2] was 14.6 µM, the TGI [2] was 30.7 µM and the GI50 [3] was 8.86 µM. For the same molecule, the TGI [3] was 32 µM, the GI50 [4] was 8.01 µM and the TGI [4] was 60.4 µM. The GI50 [5] was 17.9 µM, the TGI [5] was 34.6 µM and the GI50 [6] was 8.79 µM. It also gave a TGI [6] of 32.5 µM, a GI50 [7] of 5.75 µM and a TGI [7] of 16.8 µM. The GI50 [8] was 3.43 µM, the TGI [8] was 49.7 µM and the GI50 [9] was 6.85 µM. The TGI [9] was 33.2 µM, the Activity (SF-268) was <32% and the Activity (MCF7) was <32%. For the same molecule, the Activity (NCI-H460) was <32%.

With CC(=O)NS(=O)(=O)c1ccc(-n2nc(-c3ccccc3)cc2-c2cc(O)ccc2O)cc1 the GI50 [1] was 91.3 µM, the TGI [1] was 100 µM and the LC50 (concentration giving 50% net cell kill) [1] was 100 µM. It also gave a GI50 [2] of 100 µM, a TGI [2] of 100 µM and a GI50 [3] of 78.1 µM. The TGI [3] was 100 µM, the GI50 [4] was 100 µM and the TGI [4] was 100 µM. It also gave a GI50 [5] of 90.4 µM, a TGI [5] of 100 µM and a GI50 [6] of 84.8 µM. The TGI [6] was 100 µM, the GI50 [7] was 78.6 µM and the TGI [7] was 100 µM. For the same molecule, the GI50 [8] was 93.6 µM, the TGI [8] was 100 µM and the GI50 [9] was 93.9 µM. For the same molecule, the TGI [9] was 100 µM, the Activity (SF-268) was <32% and the Activity (MCF7) was <32%. For the same molecule, the Activity (NCI-H460) was <32%.

NS(=O)(=O)c1ccc(-n2nc(-c3ccc(Cl)cc3)cc2-c2cc(O)ccc2O)cc1 gave a GI50 [1] of 16.7 µM, a TGI [1] of 54.5 µM and an LC50 (concentration giving 50% net cell kill) [1] of 76.6 µM. For the same molecule, the GI50 [2] was 13.4 µM, the TGI [2] was 29.8 µM and the GI50 [3] was 12 µM. It also gave a TGI [3] of 35.4 µM, a GI50 [4] of 14.7 µM and a TGI [4] of 50.9 µM. For the same molecule, the GI50 [5] was 17.8 µM, the TGI [5] was 35.5 µM and the GI50 [6] was 14.6 µM. The TGI [6] was 38.9 µM, the GI50 [7] was 15.1 µM and the TGI [7] was 43.1 µM. It also gave a GI50 [8] of 5.03 µM, a TGI [8] of 61.4 µM and a GI50 [9] of 13 µM. For the same molecule, the TGI [9] was 39.1 µM, the Activity (SF-268) was <32% and the Activity (MCF7) was <32%. For the same molecule, the Activity (NCI-H460) was <32%.
